Experiments:
Ccl2 mRNA = experiment: Real-Time PCR of Ccl2 at wound sites; type: in vivo, mice; conditions: day 2; P<0.05 versus control sODN
Procedure: Male, 8 week old, ICR mice were used in the following experiments. All the mice were kept under specific pathogen-free conditions in an environmentally controlled clean room at University College London and all the experiments were carried out under UK Home Office regulations. Mice were anaesthetized by halothane inhalation. Four full-thickness excisional wounds of 6 mm diameter were made on the shaved back on either side of the dorsal midline with a 6 mm biopsy punch (Kai Industries). To each pair of wounds a single topical application of 50 μl of 1 μM Cx43 as ODN (SEQ. ID No. 2) (Sigma-Genosys) in 30% Pluronic F-127 gel (Sigma-Aldrich), chilled on ice, was made to one wound, and an identical application of 1 μM sense control sODNs was made to the other. […] R. and Becker, D. L. (2003). Targeting connexin 43 expression accelerates the rate of wound repair. Curr Biol 13, 1697-703). Each wound region was digitally photographed at the indicated time intervals, and the areas of the wounds were calculated. All wound areas were expressed as percentages of the initial wound areas. […]
Gene specific primers and probe were obtained as TaqMan® Gene Expression Assays (Applied Biosystems) for Cx43, Ccl2, Co1α1, TNFα and TGFβ1. […] Each sample was analyzed in duplicate. […]

Cx43 protein = Cx43 protein levels / immunostaining at skin wound sites; type: in vivo, mice
Procedure: Male, 8 week old, ICR mice were used in the following experiments. All the mice were kept under specific pathogen-free conditions in an environmentally controlled clean room at University College London and all the experiments were carried out under UK Home Office regulations. Mice were anaesthetized by halothane inhalation. Four full-thickness excisional wounds of 6 mm diameter were made on the shaved back on either side of the dorsal midline with a 6 mm biopsy punch (Kai Industries). To each pair of wounds a single topical application of 50 μl of 1 μM Cx43 as ODN (SEQ. ID No. 2) (Sigma-Genosys) in 30% Pluronic F-127 gel (Sigma-Aldrich), chilled on ice, was made to one wound, and an identical application of 1 μM sense control sODNs was made to the other. […] R. and Becker, D. L. (2003). Targeting connexin 43 expression accelerates the rate of wound repair. Curr Biol 13, 1697-703). Each wound region was digitally photographed at the indicated time intervals, and the areas of the wounds were calculated. All wound areas were expressed as percentages of the initial wound areas. In some series of experiments, wounds and their surrounding area, including the scab and epithelial margins, were harvested with an 8 mm biopsy punch (Kai Industries) at the indicated time intervals after mice were killed with an overdose of chloroform. A minimum of eight mice were used for each time point examined.
Immunostaining for connexin 43, blood vessels or a smooth muscle actin was carried out on cryostat sections of wounds. Sections were fixed in acetone at 4° C. for 5 minutes prior to blocking for 45 minutes. Incubation in primary antibody was for one hour at the following dilutions: rabbit anti-Cx43 (Sigma) 1:3,000; isoLectin B_FITC 1:2000; von Willebrand Factor (rabbit Dako) 1:400; anti-α smooth muscle actin (Sigma) 1:400 at room temperature. Sections were washed for 3×5 minutes in PBS before a one hour incubation in anti-rabbit-FITC secondary antibody (Dako) 1:200 at room temperature. Washing 3×5 minutes in PBS, in some cases with 1 μM bis-benzimide (Sigma) in the first wash as a nuclear counter stain, and mounted in Citifluor (Citifluor, London, UK). Sections were imaged by confocal microscopy with all parameters kept constant to allow direct comparison of digital images.

Sequence: GTAATTGCGGCAGGAGGAATTGTTTCTGTC (antisense GTAATTGCGGCAGGAGGAATTGTTTCTGTC; in Pluronic F-127 gel, further chemistry not given here) [Cx43 asODN]
- expression level of Ccl2 mRNA (Ccl2 mRNA): significantly reduced
- Cx43 protein immunostaining in epidermis and dermis of wound edge (Cx43 protein; day 1, compared to controls): very low levels
- Cx43 protein immunostaining of wound (Cx43 protein; day 2): some Cx43 staining had returned to the dermis of the Cx43 asODN-treated wound but the level was still very low in the epidermis
- Cx43 staining, treated versus untreated (Cx43 protein; day 7): no obvious difference
- duration of Cx43 protein down-regulation in wound-site epidermis and dermis (Cx43 protein; delivered from Pluronic F-127 slow-release gel): at least 24 hours
- protein levels of Cx43 in the epidermis and dermis (Cx43 protein; within two hours of treatment, delivery from the time of injury): markedly reduced
